This note sets out measurements from ChEMBL document CHEMBL4433198, “Fragment-to-Lead Medicinal Chemistry Publications in 2017” (J Med Chem, 2019).

In the assay the target is Induced myeloid leukemia cell differentiation protein Mcl-1 (Homo sapiens, UniProt Q07820). In words: Binding affinity to MCL1 (unknown origin) assessed as inhibition of Mcl1-FAMbid protein-protein interaction after 1 min by fluorescence polarization assay. A general note: Fluorescence polarisation rises when a labelled molecule tumbles more slowly, as on binding a larger partner.
Sequence of Induced myeloid leukemia cell differentiation protein Mcl-1 (Q07820 whole entry): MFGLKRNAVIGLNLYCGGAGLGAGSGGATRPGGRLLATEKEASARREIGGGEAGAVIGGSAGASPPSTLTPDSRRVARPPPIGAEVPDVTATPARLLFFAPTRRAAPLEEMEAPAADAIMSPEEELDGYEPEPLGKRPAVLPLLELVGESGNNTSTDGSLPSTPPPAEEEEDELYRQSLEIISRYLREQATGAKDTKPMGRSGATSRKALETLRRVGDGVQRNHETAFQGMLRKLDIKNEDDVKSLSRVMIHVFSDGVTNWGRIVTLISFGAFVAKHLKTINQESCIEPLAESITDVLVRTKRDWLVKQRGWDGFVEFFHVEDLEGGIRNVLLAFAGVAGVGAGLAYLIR

As for `O=C(O)c1cc2ccccc2n1S(=O)(=O)c1ccc(OCc2cccc(Cl)c2)cc1`, the dissociation constant Kd (usually the concentration at which binding is half-saturated) was found to be 480 nM.
